Columns and labels:
Type in all cases: cell-based
[1] = tested on: L1210 (mouse lymphocytic leukemia); assay: Test on cell proliferation (MTT test), L1210; settings: 48 hours
Description: (§1) a. Eight tumoral cell lines are used in this study: L1210 (mouse lymphocytic leukemia), HCT15 and LOVO (cell lines of human colon adenocarcinoma), A549 (human lung carcinoma), A172, U373 et U87 (human glioblastoma). All these lines are obtained from the American Type Culture Collection (ATCC), Rockville, Md. The L1210 cell cultures in suspension are cultured in Dulbecco's modified Eagle's medium (DMEM) (BioWhitaker, Verviers, Belgium) together with 10% of foetal calf serum inactivated by heating, 2 mM of glutamine, 50 μg/ml of penicillin and 50 μg/ml of streptomycin. The HT29 cells are cultured in mono-layer cultures in a McCoy 5a medium (Gibco, Paisley, United Kingdom) together with 10% of foetal calf serum inactivated by heat plus 2 mM of glutamine and 50 μg/ml of gentamycin. The other cells are cultured in an Earle's modified essential medium (EMEM; Gibco, Paisley, United Kingdom) together with 5% foetal calf serum inactivated by heat, 2 mM of glutamine, 50 U/ml of penicillin and 50 μg/ml of streptomycin. All the cell lines are cultured at 37° C. in a humidified atmosphere containing 95% air and 5% CO2.
(§2) Inhibition of the tumor cell line proliferation is determined using an MTT test. 1500 L1210 cells in a culture medium (according to the needs of the cell medium) are seeded in a well of a micro-well plate (tissue culture level: 96 wells, flat bottom) 24 hours before treatment with the compounds to be tested. For these dose-response studies, the cells are incubated with each of the compounds to be tested or their corresponding solvent (controls) for 48 hours over a final concentration range of 1.10^−10 to 1.10^−4 M. All the compounds are dissolved just before use in dimethylsulphoxide (DMSO) at a concentration of 50 mM. Other dilutions of the medicaments are carried out in the culture medium. The final concentration of DMSO never exceeds 0.2% (v/v). As controls, the solutions of medicaments are replaced with the solvent which is diluted successively in the same way as the compounds to be tested.
(§3) After the incubation period, the labeling reagent MTT (3-[4,5-dimethylthiazol-2-yl]-2,5-diphenyltetrazolium bromide; Thiazol blue, Sigma M 565, Sigma, St Louis, Mo.) is added at a final concentration of 0.3 mg/ml to each well. The cells are incubated for 4 hours at 37° C. in a humidified atmosphere. This stage allows the mitochondrial dehydrogenase of the living cells to convert the yellow tetrazolium salt MTT into crimson formazan crystals. The supernatant part is eliminated and the formazan crystals formed are solubilized with DMSO. The resultant coloured solution is quantified by absorbance at 570 nm by using a multi-cuvette scanning spectrophotometer. The data concerning the proliferation is expressed as a percentage of living cells in the treated wells, divided by the living cells in the controls. Each point represents the average of three independent experiments, each experiment represents six determinations.
(§4) The results are expressed as percentages of the calculated proliferation by the optical density (OD) of the cells treated with a medicament divided by the OD of the control cells (cells treated with DMSO). As represented in Table II, the compounds to be tested have inhibited the proliferation of cells in a dose-dependent manner.

[2] = tested on: U373 (human glioblastoma); assay: Test on cell proliferation (MTT test), U373; settings: 72 hours
Description: as §1, §2, §3
(§5) For the other cell lines (HCT15, LOVO, A549, A172, U373, U87), 1000 to 2000 cells are seeded in the well of a micro-well plate 24 hours before medicinal treatment. […]
as §4

[3] = tested on: A549 (human lung carcinoma); assay: Test on cell proliferation (MTT test), A549; settings: 72 hours
Description: as §1, §2, §3, §5, §4

[4] = tested on: LOVO (cell lines of human colon adenocarcinoma); assay: Test on cell proliferation (MTT test), LOVO; settings: 72 hours
Description: as §1, §2, §3, §5, §4

[5] = tested on: A172 (human glioblastoma); assay: Test on cell proliferation (MTT test), A172; settings: 72 hours
Description: as §1, §2, §3, §5, §4

U87 (human glioblastoma) = assay: Test on cell proliferation (MTT test), U87; settings: 72 hours
Description: as §1, §2, §3, §5, §4

[6] = tested on: HCT15 (cell lines of human colon adenocarcinoma); assay: Test on cell proliferation (MTT test), HCT15; settings: 72 hours
Description: as §1, §2, §3, §5, §4

CCC1(O)CC(=O)OCc2c1cc1n(c2=O)Cc2cc3ccccc3nc2-1 (stereo not shown) [Example 3, 5-ethyl-5-hydroxy-1,4,5,13-tetrahydro-3H,15H-oxepino [3′,4′:6,7]indolizino[1,2-b]quinoline-3,15-dione]
PERCENTAGE OF CELL PROLIFERATION ([1]; 0.1 nM): 87.22%
PERCENTAGE OF CELL PROLIFERATION ([1]; 1 nM): 68.92%
PERCENTAGE OF CELL PROLIFERATION ([1]; 10 nM): 42.64%
PERCENTAGE OF CELL PROLIFERATION ([1]; 100 nM): 26.85%
PERCENTAGE OF CELL PROLIFERATION ([1]; 1 000 nM): 10.83%
PERCENTAGE OF CELL PROLIFERATION ([1]; 10 000 nM): 2.11%
PERCENTAGE OF CELL PROLIFERATION ([1]; 100 000 nM): 2.20%
PERCENTAGE OF CELL PROLIFERATION ([2]; 0.1 nM): 99.00%
PERCENTAGE OF CELL PROLIFERATION ([2]; 1 nM): 98.00%
PERCENTAGE OF CELL PROLIFERATION ([2]; 10 nM): 40.00%
PERCENTAGE OF CELL PROLIFERATION ([2]; 100 nM): 24.00%
PERCENTAGE OF CELL PROLIFERATION ([2]; 1 000 nM): 17.00%
PERCENTAGE OF CELL PROLIFERATION ([2]; 10 000 nM): 13.00%
PERCENTAGE OF CELL PROLIFERATION ([2]; 100 000 nM): 9.00%
PERCENTAGE OF CELL PROLIFERATION ([3]; 0.1 nM): 132.00%
PERCENTAGE OF CELL PROLIFERATION ([3]; 1 nM): 111.00%
PERCENTAGE OF CELL PROLIFERATION ([3]; 10 nM): 75.00%
PERCENTAGE OF CELL PROLIFERATION ([3]; 100 nM): 39.00%
PERCENTAGE OF CELL PROLIFERATION ([3]; 1 000 nM): 35.00%
PERCENTAGE OF CELL PROLIFERATION ([3]; 10 000 nM): 10.00%
PERCENTAGE OF CELL PROLIFERATION ([3]; 100 000 nM): 11.00%
PERCENTAGE OF CELL PROLIFERATION ([4]; 0.1 nM): 108.00%
PERCENTAGE OF CELL PROLIFERATION ([4]; 1 nM): 86.00%
PERCENTAGE OF CELL PROLIFERATION ([4]; 10 nM): 54.00%
PERCENTAGE OF CELL PROLIFERATION ([4]; 100 nM): 31.00%
PERCENTAGE OF CELL PROLIFERATION ([4]; 1 000 nM): 23.00%
PERCENTAGE OF CELL PROLIFERATION ([4]; 10 000 nM): 10.00%
PERCENTAGE OF CELL PROLIFERATION ([4]; 100 000 nM): 12.00%
PERCENTAGE OF CELL PROLIFERATION ([5]; 0.1 nM): 89.00%
PERCENTAGE OF CELL PROLIFERATION ([5]; 1 nM): 101.00%
PERCENTAGE OF CELL PROLIFERATION ([5]; 10 nM): 68.00%
PERCENTAGE OF CELL PROLIFERATION ([5]; 100 nM): 37.00%
PERCENTAGE OF CELL PROLIFERATION ([5]; 1 000 nM): 27.00%
PERCENTAGE OF CELL PROLIFERATION ([5]; 10 000 nM): 10.00%
PERCENTAGE OF CELL PROLIFERATION ([5]; 100 000 nM): 7.00%
PERCENTAGE OF CELL PROLIFERATION (U87 (human glioblastoma); 0.1 nM): 108.00%
PERCENTAGE OF CELL PROLIFERATION (U87 (human glioblastoma); 1 nM): 85.00%
PERCENTAGE OF CELL PROLIFERATION (U87 (human glioblastoma); 10 nM): 42.00%
PERCENTAGE OF CELL PROLIFERATION (U87 (human glioblastoma); 100 nM): 23.00%
PERCENTAGE OF CELL PROLIFERATION (U87 (human glioblastoma); 1 000 nM): 15.00%
PERCENTAGE OF CELL PROLIFERATION (U87 (human glioblastoma); 10 000 nM): 5.00%
PERCENTAGE OF CELL PROLIFERATION (U87 (human glioblastoma); 100 000 nM): 6.00%
PERCENTAGE OF CELL PROLIFERATION ([6]; 0.1 nM): 86.00%
PERCENTAGE OF CELL PROLIFERATION ([6]; 1 nM): 84.00%
PERCENTAGE OF CELL PROLIFERATION ([6]; 10 nM): 58.00%
PERCENTAGE OF CELL PROLIFERATION ([6]; 100 nM): 44.00%
PERCENTAGE OF CELL PROLIFERATION ([6]; 1 000 nM): 18.00%
PERCENTAGE OF CELL PROLIFERATION ([6]; 10 000 nM): 9.00%
PERCENTAGE OF CELL PROLIFERATION ([6]; 100 000 nM): 13.00%
